# According to PubChem BioAssay AID179 (DTP/NCI, 2004):
# Activity calls are given as the source filed them.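 Rule for the calls: active = compounds giving half or more protection of infected cells from virus-caused growth loss, again on retest; inactive = the rest.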
# Tested on: CEM cells HIV-1 protection, formazan growth assay
# Assay: NCI AIDS Antiviral Assay
# Details: for IC50: measured here: growth of uninfected CEM cells
# Summary of the method: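 Five concentrations of each compound were applied to infected and uninfected human CEM cells. Protection from HIV-1 was judged from growth measured with a soluble formazan assay.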
SMILES,EC50,IC50,outcome
COc1ccc([B-]23OCC[N+]2(CNC(=O)C2=C(O)C4(O)C(=O)C5=C(O)c6c(O)cccc6C(C)(O)C5CC4C(N(C)C)C2=O)CCO3)cc1 (centres undefined),> 100 µM,47.9 µM,–
Nc1cccc(C#Cc2cccc(C#Cc3cccc(N)n3)n2)n1,> 200 µM,75.9 µM,–
CCCCCCCCCCCCCC/C(C(=O)OC)=C(/O)C(=O)OCC,> 91.2 µM,28.8 µM,–
CC1(C)OC(=O)C(=C2CC(c3ccccc3)c3ccccc32)C(=O)O1 (centres undefined),–,–,inactive
Cc1ccc(SCC(CF)OC(C)n2cnc3c(Cl)nc(N)nc32)cc1 (centres undefined),> 200 µM,38 µM,–
O=C1CCCC(O)=C1SC1=C(O)CCCC1=O,–,–,inactive
Cc1cn(C2C=CC(CO)(C(F)(F)F)O2)c(=O)[nH]c1=O (centres undefined),> 200 µM,> 200 µM,–
O=C(CN(Cc1ccccc1)Cc1ccccc1)N1CCc2c([nH]c3ccccc23)C1c1cccnc1 (centres undefined),> 5.62 µM,> 5.62 µM,–
CCN(CC)CCNc1ccc(CO)c2oc3cc(Cl)ccc3c(=O)c12,> 25.1 µM,4.57 µM,–
C/C(=N\N=C(N)N)C(CN1CCCCC1)C(c1ccccc1)c1c(O)c2ccccc2oc1=O (centres undefined),> 52.5 µM,> 52.5 µM,–
NC(N)=Nc1ccc(/C=C2\C=Cc3ccccc32)cc1,> 27.5 µM,10.5 µM,–
CSC(=O)/C=C1\SS/C(=C\C(=O)SC)S1,> 200 µM,3.09 µM,–
CC(=O)Oc1ccccc1C(=O)O,> 380 µM,> 380 µM,–
COC(=O)Cc1c([C@@H]2Nc3ccccc3[C@H]2CC(=O)OC)[nH]c2ccccc12,> 200 µM,30.2 µM,–
COc1cc(N(CCC#N)CCC#N)ccc1/C(N=Nc1ccc(C(=O)O)cc1)=N/NC(=O)c1cc(Br)ccc1O,> 200 µM,26.3 µM,–
Cc1cc(NS(=O)(=O)c2ccc(N=Nc3cc(N=Nc4ccc(S(=O)(=O)Nc5cc(C)nc(C)n5)cc4)c4c(NC(=O)C(Cl)Cl)cccc4c3OC(=O)C(Cl)Cl)cc2)nc(C)n1 (tested in a mixture with another compound),–,–,inactive

SMILES,EC50,IC50,outcome
COc1ccc(NC(=O)CC(=O)N2N=C(N3c4ccccc4Sc4ccccc43)CC2c2ccccc2)cc1 (centres undefined),–,–,inactive
Cc1ccc2oc(=O)ccc2c1,> 427 µM,174 µM,–
O=C1NC(=O)C23C(=O)NC(=O)C12C1C=CC3CC1 (centres undefined),> 200 µM,> 200 µM,–
Clc1cc(Cl)c2c(c1)[nH]c1nc3ccccc3nc12,> 18.2 µM,> 18.2 µM,–
CC1=NN(C(=O)Cc2ccccc2)C(=O)/C1=C\c1ccccc1O,> 22.4 µM,> 22.4 µM,–
Oc1ccccc1/C=N/N1C(=S)N(C23CC4CC(CC(C4)C2)C3)C(=Nc2ccccc2)C1=Nc1ccccc1,> 200 µM,85.1 µM,–
CCN(CC)CCNC(=O)c1cn2c(ccc3sc4ccccc4c(=O)c32)n1,> 20 µM,1.1 µM,–
CC(C)OP(=O)(OC(C)C)/C(=N/Nc1ccccc1[N+](=O)[O-])NNC(=O)c1ccccc1,> 1.17 µM,> 1.17 µM,–
CCOC(=O)C1CC=CC(NC(=O)OC(C)(C)C)C1(c1ccccc1)[N+](=O)[O-] (centres undefined),–,–,inactive
N#C/C(=C\c1ccccc1[N+](=O)[O-])c1ccccc1,> 5.75 µM,> 5.75 µM,–
C[CH2][Ge]([CH2]C)([CH2]C)[O]C(=O)C([O][Ge]([CH2]C)([CH2]C)[CH2]C)c1ccccc1 (centres undefined),> 200 µM,20.9 µM,–
Cc1c(N=Nc2ccccc2)c(C)n(C2OC(CO)C(O)C(O)C2O)c(=S)c1C#N (centres undefined),> 200 µM,22.9 µM,–
CCOC(=O)NC1C2CC(=O)C(O2)C1OCc1ccccc1 (centres undefined),> 309 µM,295 µM,–
Cc1cn(C2CC(N=[N+]=[N-])C(COC(=O)C(O)[C@@]3(O)CC[C@H]4[C@@H]5CCC6=CC(=O)C=C[C@]6(C)[C@H]5[C@@H](O)C[C@@]43C)O2)c(=O)[nH]c1=O (some centres undefined),0.708 µM,> 200 µM,–
CN/N=C(\C)CC(=O)Nc1cccc(Cl)c1C,> 14.8 µM,> 14.8 µM,–
C=C1CN(S(=O)(=O)c2ccc(C)cc2)CCCN(Cc2ccsc2)CCCN(S(=O)(=O)c2ccc(C)cc2)C1,> 200 µM,52.5 µM,–
